Laboratory results from patent publication US11318141B2, “Methods and compositions related to STK1-targeted small molecules as antibiotic resistance breakers” (Ohio State Innovation Foundation, priority 2017, dated 2022).

Tests used:
S. aureus MW2-WT [1] = experiment: microbe, parasite or virus in culture; type: cell-based, Staphylococcus aureus; details: E-test, 50 μM Inh2-B1, 6 antibiotics
S. aureus MW2-WT [2] = experiment: Time-to-kill assay (OD and CFU counts over 16 h), broth dilution; type: cell-based, Staphylococcus aureus
Method: FIGS. 4A-F show. […] Optical Density and corresponding Colony forming units of (C and D) MW2-WT and (E and F) MW2ΔSTK1 cultures in the presence or absence 50 μM Inh2-B1, 1.51 μM (1 μg/ml) Ceftriaxone, 2.125 μM (1 μg/ml) Cefotaxime, and combination of Inh2-B1 plus Ceftriaxone, and Inh2-B1 plus Cefotaxime. The experiments were carried out as described in the Materials and Method section using Muller-Hinton broth and seeded with 4×10^6 CFUs of S. aureus MW2-Wild type or MW2ΔSTK1 strains per well. Each data points represent Mean±S.D. P values of significance (**=<0.01, ***=<0.001) were determined using the t-test with Welch's corrections. NS—Not significant.
Subsequently, the susceptibility of S. aureus MW2 strain to Ceftriaxone, Cefotaxime, Inh2, and Inh2-B1 was confirmed by the CLSI recommended serial dilution method using Muller Hinton broth. Minimum bactericidal activity (MBC) was measured using Muller-Hinton agar. Changes in the MBC of Ceftriaxone/Cefotaxime in the presence of serially diluted Inh2-B1 was determined in two steps. Initial screening was carried out using the Checkerboard method using Muller-Hinton agar (FIG. 15). […] Subsequent time to kill assays were carried out using 50 μM Inh2-B1 and Ceftriaxone. Cefotaxime (1 μg/ml) in a final volume of 250 μl using a sterile 96-well (U-bottom) microtiter plate over a period of 16 h at 37° C. under constant rotation (120 rpm). Optical density and corresponding CFU counts were measured at every two-hour interval up to 8 hours with a final overnight reading at the end of incubation period. CFU counts were measured using appropriate dilution of 10 μl of properly mixed samples at each time interval. All experiments were performed in three biological replicates and the statistical analysis of the results obtained at each time point was carried out by the non-parametric t-test with Welch's correction using GraphPad Prism 6 software.

S. aureus MW2-WT [3] = experiment: S. aureus mouse septicemia model, therapeutic study; type: in vivo, CD-1 mice
Method: (§1) The virulence potential of the wild-type S. aureus MW2 wild-type and corresponding MW2ΔSTK1 and MW2ΔSTP1 mutants was assessed using the mouse-septicemia model. CD-1 mice (5 weeks old, 20-22 g. Charles River Laboratories, ten female mice/group and housed in a group of 5 mice/cage) were lightly anesthetized with isoflurane and injected retro-orbitally with the S. aureus MW2 or isogenic MW2Δstk1 mutant (4×10^8 CFU/0.1 ml of PBS). […] For therapeutic studies, the animals were first challenged with MW2-WT strain as described above and subsequently administered with antibiotic and/or small molecule compounds. The latter was started 4 h after the challenge and subsequently 12 h apart for 4 days post infection. Thus, Inh2-B1 (5 mg/kg body weight in 0.3 ml vehicle buffer), Ceftriaxone (10 and 25 mg/kg body weight in 0.3 ml vehicle buffer). Cefotaxime (10 mg/kg body weight), combination of Ceftriaxone (10 mg and 25 mg/kg body weight in 0.3 ml vehicle buffer) or Cefotaxime (10 mg/kg body weight) with Inh2-B1 (5 mg/kg body weight in 0.3 ml vehicle buffer), or 0.3 ml of vehicle-buffer (50 mM Tris/HCl, pH 8.8, 1.67% [v/v] DMSO). Early removal and euthanasia criteria were applied to all experimental mice showing penultimate sign(s) of the unrecoverable stage of illness, including ruffled skin with a hunch back, loss of more than 20% of body mass as compared to unchallenged mice receiving mock treatment, dyspnea, and labored gasping. All experiments were performed twice. Data were combined, and percentage survival in each group was statistically evaluated by the Log-Rank test (Kaplan-Meier) using the GraphPad Prism 6 software. P<0.05 was treated as a significant difference. On Day 3 P.I., 3-6 mice from different groups receiving treatment with a single antibiotic or combination therapy were euthanized and sacrificed, and kidneys were […] for determining the bacterial load, which was determined by counting the colony forming units in the homogenized tissue in sterile PBS buffer.

[4] = Tolerability in mice treated with compound only; type: in vivo, CD-1 mice; details: 5 mg/kg i.p., ten-day observation
Method: as §1, with “Cefotaxime (10 mg/kg body weight), combination of Ceftriaxone (10 mg and 25 mg/kg body weight in 0.3 ml vehicle buffer) or Cefotaxime (10 mg/kg body weight) with Inh2-B1 (5 mg/kg body weight in 0.3 ml vehicle buffer), or 0.3 ml of vehicle-buffer (50 mM Tris/HCl, pH 8.8, 1.67% [v/v] DMSO). Early removal and euthanasia criteria were applied to all experimental mice showing penultimate sign(s) of the unrecoverable stage of illness, including ruffled skin with a hunch back, loss of more than 20% of body mass as compared to unchallenged mice receiving mock treatment, dyspnea, and labored gasping. All experiments were performed twice.” left out, “P<0.05 was treated as a significant difference.” left out

S. aureus MW2 wild-type = experiment: Serial passage at suboptimal dose (10 generations), stk1 PCR and DNA sequencing; type: cell-based, Staphylococcus aureus; details: 25 μM Inh2-B1 alone or with 3 μM Ceftriaxone or 3 μM Cefotaxime, 10 generations
Method: Since the STK1 is not essential for bacterial survival and its absence results in retardation of growth, an end-point bactericidal assay was done, employing the Checkerboard titration method followed by a time-to-kill assay using the broth dilution method. The 96-well plate-based checkerboard titration assays were performed using the fixed number of CFUs of MW2 strain, and the survival of the bacteria was measured on solid agar plates as an end-point result. […] The cut-off value to designate clinical isolates of S. aureus for antibiotics, including Ceftriaxone (TX) and Cefotaxime (CT) as susceptible, is less than 4 μg/ml (i.e., <4.8 μM of TX, and <7 μM of CT). […] CFU counts of MW2-WT grown in the presence of various concentrations of Inh2-B1 were examined over a period of 16 h. […] Similarly, it was also determined CFU counts of MW2-WT and MW2ΔSTK1 strains each grown in the absence or the presence of 50 μM of Inh2-B1 and 1.5 μM Ceftriaxone (1 μg/ml) or […] Cefotaxime (1 μg/ml) for 16 h employing the broth dilution method. […] Further, to address whether MW2 or STK1 could become refractory to a potential combined therapy, the S. aureus MW2 wild-type strain was grown in the presence of suboptimal dose of Inh2-B1 alone and combination with Ceftriaxone and Cefotaxime (25 μM Inh2-B1 and 3 μM of Ceftriaxone or 3 μM Cefotaxime) for consecutive 10 generations.

[5] = Inh2-B1 5 mg/kg plus Cefotaxime 10 mg/kg

With COC(=O)c1ccc2c(=O)[nH]c3c(C(=O)Nc4ccccc4)sc(=S)n3c2c1 [Inh2-B1, Methyl 5-oxo-3-(phenylcarbamoyl)-1-thioxo-4,5dihydro[1,3]thiazolo[3,4-a]quinazoline-8-carboxylate] the “effect on susceptibility patterns of antibiotics other than cell wall acting ones” value (S. aureus MW2-WT [1]) was “did not change susceptibility patterns”, the “log increase in growth from starting inoculum” value (S. aureus MW2-WT [2]; 100 μM Inh2-B1, 16 h) was “more than 3 log” and the “CFU count of MW2-WT after growth” value (S. aureus MW2-WT [2]; 100 μM Inh2-B1, 16 h, starting inoculum 4×10^6 CFU) was 1.8±1.0×10^9 CFU. For the same molecule, the “growth pattern of the MW2 wild-type in the presence of Inh2-B1” value (S. aureus MW2-WT [2]; FIGS. 4A and 4B, mimicked MW2ΔSTK1) was “slightly retarded”, the “growth of the MW2 wild-type, mixture” value (S. aureus MW2-WT [2]; mixture of 1.5 μM Ceftriaxone (1 μg/ml) and 50 μM Inh2-B1) was “dramatically inhibited” and the “growth pattern of the wild-type, single agent” value (S. aureus MW2-WT [2]; only 50 μM Inh2-B1, only 1.5 μM Ceftriaxone (1 μg/ml) or only 3 μM Cefotaxime (1 μg/ml), 16 h) was “remained unaltered”. The “log reduction in comparison to the wild-type” value (S. aureus MW2-WT [2]; very high concentration (100 μM) of Inh2-B1) was roughly 2 log, the “number of survived animals at the end of 10 days, Cefotaxime combination compared with Ceftriaxone combination” value (S. aureus MW2-WT [3]; [5]) was “significantly low” and the “survival of mice, combination therapy with Cefotaxime (Inh2-B1+CT)” value (S. aureus MW2-WT [3]; [5]) was “significantly prolonged the survival of mice”. The “survival, combination therapy with Ceftriaxone” value (S. aureus MW2-WT [3]; Inh2-B1 5 mg/kg plus Ceftriaxone 10 or 25 mg/kg i.p., ten days) was 60%, the “S. aureus MW2 burden in kidneys” value (S. aureus MW2-WT [3]; day 3 P.I., combined therapy (Inh2-B1 with Ceftriaxone or Cefotaxime) vs single or no therapy) was “significantly low” and the “signs of illness in mice treated with only the compound” value [4] was “no morbid signs of illness”. The “survival of mice treated with only the compound” value [4] was “survived all throughout the observation period” and the “changes in the stk1 gene of the passaged strain” value (S. aureus MW2 wild-type) was “did not show any changes in the stk1 gene”.
